Tests used:
[1] = biological target: Phosphorylase b kinase gamma catalytic chain, skeletal muscle/heart isoform (Homo sapiens) (UniProt Q16816); conditions: Compound concentration 1000.0 nM
[2] = biological target: Bone morphogenetic protein receptor type-1A (Homo sapiens) (UniProt P36894); conditions: Compound concentration 1000.0 nM
[3] = biological target: Phosphatidylinositol 4-phosphate 3-kinase C2 domain-containing subunit beta (Homo sapiens) (UniProt O00750); conditions: Compound concentration 1000.0 nM
[4] = system: Epidermal growth factor receptor (Homo sapiens), P00533 [T790M]; conditions: Compound concentration 1000.0 nM
[5] = biological target: Serine/threonine-protein kinase Nek5 (Homo sapiens) (UniProt Q6P3R8); conditions: Compound concentration 1000.0 nM
[6] = biological target: Phosphatidylinositol 3-kinase C2 domain-containing subunit gamma (Homo sapiens) (UniProt O75747); conditions: Compound concentration 1000.0 nM
[7] = biological target: Histamine H3 receptor (Homo sapiens) (UniProt Q9Y5N1); conditions: Compound concentration 10.0 uM
[8] = biological target: Activin receptor type-1-like (Homo sapiens) (UniProt P37023); conditions: Compound concentration 1000.0 nM
[9] = biological target: Mitogen-activated protein kinase kinase kinase kinase 4 (Homo sapiens) (UniProt O95819); conditions: Compound concentration 1000.0 nM
[10] = biological target: Fibroblast growth factor receptor 3 (Homo sapiens) (UniProt P22607); conditions: Compound concentration 1000.0 nM
[11] = biological target: 5-hydroxytryptamine receptor 1D (Homo sapiens) (UniProt P28221); conditions: Compound concentration 10.0 uM
[12] = biological target: Serine/threonine-protein kinase 32A (Homo sapiens) (UniProt Q8WU08); conditions: Compound concentration 1000.0 nM
[13] = biological target: Serine/threonine-protein kinase WNK2 (Homo sapiens) (UniProt Q9Y3S1); conditions: Compound concentration 1000.0 nM
[14] = biological target: Serine/threonine-protein kinase/endoribonuclease IRE1 (Homo sapiens) (UniProt O75460); conditions: Compound concentration 1000.0 nM
[15] = system: Phosphatidylinositol 4,5-bisphosphate 3-kinase catalytic subunit alpha isoform (Homo sapiens), P42336 [E542K]; conditions: Compound concentration 1000.0 nM
[16] = biological target: Tyrosine-protein kinase Mer (Homo sapiens) (UniProt Q12866); conditions: Compound concentration 1000.0 nM
[17] = system: Tyrosine-protein kinase ABL1 (Homo sapiens), P00519 [F317I]; conditions: Compound concentration 1000.0 nM
[18] = biological target: Dual specificity tyrosine-phosphorylation-regulated kinase 2 (Homo sapiens) (UniProt Q92630); conditions: Compound concentration 1000.0 nM
[19] = biological target: Serine/threonine-protein kinase RIO3 (Homo sapiens) (UniProt O14730); conditions: Compound concentration 1000.0 nM
[20] = biological target: Proto-oncogene tyrosine-protein kinase ROS (Homo sapiens) (UniProt P08922); conditions: Compound concentration 1000.0 nM
[21] = biological target: Serine/threonine-protein kinase DCLK3 (Homo sapiens) (UniProt Q9C098); conditions: Compound concentration 1000.0 nM
[22] = system: Epidermal growth factor receptor (Homo sapiens), P00533 [L858R,T790M]; conditions: Compound concentration 1000.0 nM
[23] = biological target: Serine/threonine-protein kinase 38-like (Homo sapiens) (UniProt Q9Y2H1); conditions: Compound concentration 1000.0 nM
[24] = biological target: Mitogen-activated protein kinase kinase kinase 7 (Homo sapiens) (UniProt O43318); conditions: Compound concentration 1000.0 nM
[25] = biological target: MAP/microtubule affinity-regulating kinase 4 (Homo sapiens) (UniProt Q96L34); conditions: Compound concentration 1000.0 nM
[26] = system: ALK tyrosine kinase receptor (Homo sapiens), Q9UM73 [L1196M]; conditions: Compound concentration 1000.0 nM
[27] = biological target: Serine/threonine-protein kinase Chk2 (Homo sapiens) (UniProt O96017); conditions: Compound concentration 1000.0 nM
[28] = biological target: Cyclin-G-associated kinase (Homo sapiens) (UniProt O14976); conditions: Compound concentration 1000.0 nM
[29] = biological target: Dual specificity protein kinase CLK2 (Homo sapiens) (UniProt P49760); conditions: Compound concentration 1000.0 nM
[30] = biological target: Cyclin-dependent kinase-like 3 (Homo sapiens) (UniProt Q8IVW4); conditions: Compound concentration 1000.0 nM
[31] = biological target: Dual specificity mitogen-activated protein kinase kinase 3 (Homo sapiens) (UniProt P46734); conditions: Compound concentration 1000.0 nM
[32] = biological target: Serine/threonine-protein kinase PRP4 homolog (Homo sapiens) (UniProt Q13523); conditions: Compound concentration 1000.0 nM
[33] = biological target: Ankyrin repeat and protein kinase domain-containing protein 1 (Homo sapiens) (UniProt Q8NFD2); conditions: Compound concentration 1000.0 nM
[34] = biological target: Serine/threonine-protein kinase MRCK gamma (Homo sapiens) (UniProt Q6DT37); conditions: Compound concentration 1000.0 nM
[35] = biological target: 5-hydroxytryptamine receptor 3A (Homo sapiens) (UniProt P46098); conditions: Compound concentration 10.0 uM
[36] = biological target: Dual specificity testis-specific protein kinase 1 (Homo sapiens) (UniProt Q15569); conditions: Compound concentration 1000.0 nM
[37] = biological target: Phosphatidylinositol 4,5-bisphosphate 3-kinase catalytic subunit alpha isoform (Homo sapiens) (UniProt P42336); conditions: Compound concentration 1000.0 nM
[38] = biological target: Ephrin type-A receptor 1 (Homo sapiens) (UniProt P21709); conditions: Compound concentration 1000.0 nM
[39] = biological target: Interleukin-1 receptor-associated kinase 1 (Homo sapiens) (UniProt P51617); conditions: Compound concentration 1000.0 nM
[40] = biological target: Serine/threonine-protein kinase MRCK alpha (Homo sapiens) (UniProt Q5VT25); conditions: Compound concentration 1000.0 nM
[41] = biological target: Protein kinase C eta type (Homo sapiens) (UniProt P24723); conditions: Compound concentration 1000.0 nM
[42] = biological target: Serine/threonine-protein kinase STK11 (Homo sapiens) (UniProt Q15831); conditions: Compound concentration 1000.0 nM
[43] = biological target: Aurora kinase A (Homo sapiens) (UniProt O14965); conditions: Compound concentration 1000.0 nM
[44] = biological target: Serine/threonine-protein kinase ULK3 (Homo sapiens) (UniProt Q6PHR2); conditions: Compound concentration 1000.0 nM

Sequence of Serine/threonine-protein kinase 38-like (Homo sapiens) (Q9Y2H1 2-464 limits assumed): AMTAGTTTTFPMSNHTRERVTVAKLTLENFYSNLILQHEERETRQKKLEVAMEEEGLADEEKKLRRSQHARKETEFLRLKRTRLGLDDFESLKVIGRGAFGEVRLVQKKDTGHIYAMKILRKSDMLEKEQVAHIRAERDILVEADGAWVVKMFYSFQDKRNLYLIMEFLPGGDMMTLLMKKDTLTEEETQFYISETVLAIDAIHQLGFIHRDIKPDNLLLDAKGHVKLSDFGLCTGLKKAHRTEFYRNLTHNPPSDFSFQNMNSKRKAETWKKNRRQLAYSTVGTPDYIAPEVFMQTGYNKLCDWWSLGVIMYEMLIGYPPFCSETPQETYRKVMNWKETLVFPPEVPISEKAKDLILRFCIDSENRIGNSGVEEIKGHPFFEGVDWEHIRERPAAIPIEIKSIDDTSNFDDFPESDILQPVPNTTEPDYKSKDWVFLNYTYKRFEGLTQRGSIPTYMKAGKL
Sequence of Tyrosine-protein kinase ABL1 (Homo sapiens), P00519 [F317I] (P00519 whole entry F317I): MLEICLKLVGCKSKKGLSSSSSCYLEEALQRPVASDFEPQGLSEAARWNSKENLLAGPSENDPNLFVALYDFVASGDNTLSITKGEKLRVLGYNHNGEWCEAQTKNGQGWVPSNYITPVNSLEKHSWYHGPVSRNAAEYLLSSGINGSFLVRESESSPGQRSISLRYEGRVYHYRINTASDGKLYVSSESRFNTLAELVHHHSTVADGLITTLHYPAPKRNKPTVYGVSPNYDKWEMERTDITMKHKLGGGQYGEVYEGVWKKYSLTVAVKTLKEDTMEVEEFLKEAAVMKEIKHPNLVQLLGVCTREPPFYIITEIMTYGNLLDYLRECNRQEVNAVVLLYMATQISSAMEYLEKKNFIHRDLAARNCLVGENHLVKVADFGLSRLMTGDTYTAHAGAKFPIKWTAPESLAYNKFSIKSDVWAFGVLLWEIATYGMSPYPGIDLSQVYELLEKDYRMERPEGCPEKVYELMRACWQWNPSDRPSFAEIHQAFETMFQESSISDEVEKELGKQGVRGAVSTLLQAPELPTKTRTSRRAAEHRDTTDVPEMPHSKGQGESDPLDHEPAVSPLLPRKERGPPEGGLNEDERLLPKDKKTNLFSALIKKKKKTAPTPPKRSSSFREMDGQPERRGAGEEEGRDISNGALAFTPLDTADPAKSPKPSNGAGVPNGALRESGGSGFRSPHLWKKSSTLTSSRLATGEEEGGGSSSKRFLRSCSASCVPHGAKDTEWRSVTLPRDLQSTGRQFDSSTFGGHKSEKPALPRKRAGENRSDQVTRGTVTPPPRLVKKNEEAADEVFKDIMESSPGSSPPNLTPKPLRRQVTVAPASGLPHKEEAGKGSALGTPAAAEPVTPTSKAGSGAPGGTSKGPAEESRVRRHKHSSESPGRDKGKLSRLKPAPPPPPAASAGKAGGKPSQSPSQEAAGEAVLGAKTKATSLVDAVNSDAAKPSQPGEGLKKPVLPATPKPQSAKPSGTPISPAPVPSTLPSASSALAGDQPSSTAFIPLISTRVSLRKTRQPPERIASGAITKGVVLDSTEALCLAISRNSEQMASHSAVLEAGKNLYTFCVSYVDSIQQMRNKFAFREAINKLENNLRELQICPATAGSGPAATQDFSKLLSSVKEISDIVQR
Sequence of Serine/threonine-protein kinase 32A (Homo sapiens) (Q8WU08 whole entry): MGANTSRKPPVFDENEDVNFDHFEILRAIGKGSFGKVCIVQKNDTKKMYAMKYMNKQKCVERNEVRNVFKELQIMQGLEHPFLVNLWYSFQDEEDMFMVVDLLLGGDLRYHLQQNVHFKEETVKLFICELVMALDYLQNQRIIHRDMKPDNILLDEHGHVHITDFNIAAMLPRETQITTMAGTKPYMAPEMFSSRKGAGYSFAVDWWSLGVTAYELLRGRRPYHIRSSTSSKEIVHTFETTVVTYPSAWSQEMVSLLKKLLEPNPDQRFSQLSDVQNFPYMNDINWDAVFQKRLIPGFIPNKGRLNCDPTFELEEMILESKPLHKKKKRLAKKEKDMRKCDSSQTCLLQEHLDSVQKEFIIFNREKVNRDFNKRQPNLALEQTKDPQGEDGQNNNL
Sequence of Interleukin-1 receptor-associated kinase 1 (Homo sapiens) (P51617 whole entry, looked up): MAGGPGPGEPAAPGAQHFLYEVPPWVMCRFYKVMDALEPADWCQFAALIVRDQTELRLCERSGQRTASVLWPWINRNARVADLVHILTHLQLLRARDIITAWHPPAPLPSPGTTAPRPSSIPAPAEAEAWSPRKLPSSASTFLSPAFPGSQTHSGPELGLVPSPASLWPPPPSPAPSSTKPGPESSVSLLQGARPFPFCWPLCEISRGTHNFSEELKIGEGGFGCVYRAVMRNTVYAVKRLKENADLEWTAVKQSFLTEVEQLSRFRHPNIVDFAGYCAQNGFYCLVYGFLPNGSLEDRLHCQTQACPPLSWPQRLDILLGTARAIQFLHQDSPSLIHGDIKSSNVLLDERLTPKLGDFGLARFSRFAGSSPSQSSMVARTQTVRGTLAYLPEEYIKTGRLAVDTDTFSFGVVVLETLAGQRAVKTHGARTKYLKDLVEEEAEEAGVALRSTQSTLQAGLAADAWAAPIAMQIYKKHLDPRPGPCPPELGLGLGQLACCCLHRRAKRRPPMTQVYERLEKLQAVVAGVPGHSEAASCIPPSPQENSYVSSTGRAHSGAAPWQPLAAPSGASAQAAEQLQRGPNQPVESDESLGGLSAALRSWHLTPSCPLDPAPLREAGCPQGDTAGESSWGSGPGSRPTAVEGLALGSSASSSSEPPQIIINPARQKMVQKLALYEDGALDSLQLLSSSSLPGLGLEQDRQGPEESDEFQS
Sequence of ALK tyrosine kinase receptor (Homo sapiens), Q9UM73 [L1196M] (Q9UM73 whole entry L1196M, looked up): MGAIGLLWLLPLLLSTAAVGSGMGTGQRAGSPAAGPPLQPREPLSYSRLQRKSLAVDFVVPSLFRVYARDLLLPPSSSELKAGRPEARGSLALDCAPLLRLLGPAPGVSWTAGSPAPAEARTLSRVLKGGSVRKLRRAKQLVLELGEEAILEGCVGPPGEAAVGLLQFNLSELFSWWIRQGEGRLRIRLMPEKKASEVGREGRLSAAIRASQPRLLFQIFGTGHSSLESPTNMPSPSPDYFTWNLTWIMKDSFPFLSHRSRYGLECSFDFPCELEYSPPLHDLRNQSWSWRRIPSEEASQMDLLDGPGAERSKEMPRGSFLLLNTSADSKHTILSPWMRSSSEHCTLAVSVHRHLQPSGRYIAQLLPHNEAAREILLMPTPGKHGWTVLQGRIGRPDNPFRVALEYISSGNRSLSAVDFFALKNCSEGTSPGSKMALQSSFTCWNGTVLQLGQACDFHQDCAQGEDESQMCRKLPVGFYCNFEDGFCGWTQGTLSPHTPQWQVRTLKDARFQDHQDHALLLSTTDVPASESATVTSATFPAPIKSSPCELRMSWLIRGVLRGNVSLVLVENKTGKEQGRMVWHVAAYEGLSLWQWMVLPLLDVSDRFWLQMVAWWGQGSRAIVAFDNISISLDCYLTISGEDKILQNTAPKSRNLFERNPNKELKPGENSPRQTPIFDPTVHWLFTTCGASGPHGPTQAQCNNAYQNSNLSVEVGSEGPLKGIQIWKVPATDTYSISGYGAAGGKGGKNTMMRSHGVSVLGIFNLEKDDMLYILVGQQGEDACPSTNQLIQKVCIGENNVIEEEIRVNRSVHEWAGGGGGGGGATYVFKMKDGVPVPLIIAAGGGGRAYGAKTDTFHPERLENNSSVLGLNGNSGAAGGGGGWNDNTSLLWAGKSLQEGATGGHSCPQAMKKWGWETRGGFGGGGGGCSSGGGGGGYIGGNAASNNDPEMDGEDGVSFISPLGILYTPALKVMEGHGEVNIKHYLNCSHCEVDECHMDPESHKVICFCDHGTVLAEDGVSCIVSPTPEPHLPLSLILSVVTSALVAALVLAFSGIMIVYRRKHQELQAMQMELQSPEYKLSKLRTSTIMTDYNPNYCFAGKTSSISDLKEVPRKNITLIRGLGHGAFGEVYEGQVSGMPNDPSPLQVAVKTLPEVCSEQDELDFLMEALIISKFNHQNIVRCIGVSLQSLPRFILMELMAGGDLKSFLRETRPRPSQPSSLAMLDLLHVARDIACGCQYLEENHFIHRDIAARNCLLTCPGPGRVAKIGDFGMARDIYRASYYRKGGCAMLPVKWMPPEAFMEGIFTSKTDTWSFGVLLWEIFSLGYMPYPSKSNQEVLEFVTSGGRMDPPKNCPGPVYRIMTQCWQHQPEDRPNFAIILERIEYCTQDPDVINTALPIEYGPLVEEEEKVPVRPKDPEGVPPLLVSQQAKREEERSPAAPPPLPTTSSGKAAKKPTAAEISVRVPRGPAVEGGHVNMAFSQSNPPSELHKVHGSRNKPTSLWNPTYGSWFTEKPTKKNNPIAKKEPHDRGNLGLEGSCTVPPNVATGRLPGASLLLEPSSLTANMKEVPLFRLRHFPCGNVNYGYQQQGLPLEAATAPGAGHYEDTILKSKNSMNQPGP
Sequence of Dual specificity protein kinase CLK2 (Homo sapiens) (P49760 whole entry, looked up): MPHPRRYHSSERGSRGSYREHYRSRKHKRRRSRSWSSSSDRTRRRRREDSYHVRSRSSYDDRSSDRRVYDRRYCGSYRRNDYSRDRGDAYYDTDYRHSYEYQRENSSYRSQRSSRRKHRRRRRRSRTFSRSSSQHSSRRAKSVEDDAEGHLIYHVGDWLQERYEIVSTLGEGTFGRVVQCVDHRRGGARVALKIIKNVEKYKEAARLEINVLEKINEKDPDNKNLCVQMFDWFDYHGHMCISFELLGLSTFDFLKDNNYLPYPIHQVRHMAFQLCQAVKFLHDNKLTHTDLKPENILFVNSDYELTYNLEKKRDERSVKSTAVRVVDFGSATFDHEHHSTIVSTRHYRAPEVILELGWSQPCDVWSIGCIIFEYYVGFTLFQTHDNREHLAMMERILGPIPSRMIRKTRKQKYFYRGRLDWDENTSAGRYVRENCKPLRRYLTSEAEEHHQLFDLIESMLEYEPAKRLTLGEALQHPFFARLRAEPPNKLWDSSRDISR

COc1cccc(CNC(=O)c2nc3scc(COCc4ccc(C(=O)O)cc4)c3c(=O)[nH]2)c1 [T-26c]
inactive: residual activity [1] 100% | residual activity [2] 100% | residual activity [3] 80.6% | residual activity [4] 92.1% | residual activity [5] 100% | residual activity [6] 100% | inhibition [7] -9.59% | residual activity [8] 100% | residual activity [9] 92.3% | residual activity [10] 100% | inhibition [11] -1.39% | residual activity [12] 100% | residual activity [13] 54.2% | residual activity [14] 89.7% | residual activity [15] 76.1% | residual activity [16] 88.3% | residual activity [17] 62.4% | residual activity [18] 100% | residual activity [19] 63.2% | residual activity [20] 100% | residual activity [21] 100% | residual activity [22] 58.6% | residual activity [23] 87.7% | residual activity [24] 60.2% | residual activity [25] 89.2% | residual activity [26] 94.8% | residual activity [27] 92% | residual activity [28] 99.6% | residual activity [29] 92.4% | residual activity [30] 100% | residual activity [31] 92.9% | residual activity [32] 97.3% | residual activity [33] 70.9% | residual activity [34] 99.4% | inhibition [35] 6.87% | residual activity [36] 82.8% | residual activity [37] 78.8% | residual activity [38] 79.9% | residual activity [39] 75.6% | residual activity [40] 100% | residual activity [41] 83.7% | residual activity [42] 97.2% | residual activity [43] 80.9% | residual activity [44] 76%

Reference: ChEMBL document CHEMBL4507300 (2021)
